Our source for the Activity values is ChEMBL document CHEMBL1141717, “New functionalized 1,2,4-trioxepanes: synthesis and antimalarial activity against multi-drug resistant P. yoelii in mice” (2008).

Activity calls are given as the source filed them. The calls are words filed in the database; no cut-off is given here.

Experiment [1] concerns Plasmodium yoelii nigeriensis. In words: Antimalarial activity as survivor numbers against multidrug-resistant Plasmodium yoelii nigeriensis infected Swiss mice (Mus musculus) at 96 mg/kg peroral dose at day 28. Further details: dose 96 mg/kg. Format: functional, organism-based.
Experiment [2] has as its system Plasmodium yoelii nigeriensis. In words: Antimalarial activity as reduced parasitaemia against multidrug-resistant Plasmodium yoelii nigeriensis infected Swiss mice (Mus musculus) at 96 mg/kg intramuscular dose at day 4. Further details: scale not given: the % may be the effect or the level left. Type of experiment: functional.
Experiment [3] relates to Plasmodium yoelii nigeriensis. In words: Antimalarial activity as reduced parasitaemia against multidrug-resistant Plasmodium yoelii nigeriensis infected Swiss mice (Mus musculus) at 96mg/kg peroral dose at day 4. Further details: scale not given: the % may be the effect or the level left. Format: functional.
Experiment [4] has as its system Plasmodium yoelii nigeriensis. In words: Antimalarial activity as survivor numbers against multidrug-resistant Plasmodium yoelii nigeriensis infected Swiss mice (Mus musculus) at 96 mg/kg intramuscular dose at day 28. Type of experiment: functional, organism-based. Further details: dose 96 mg/kg.
Experiment [5] has as its system Plasmodium yoelii nigeriensis. In words: Antimalarial activity as reduced parasitaemia against multidrug-resistant Plasmodium yoelii nigeriensis infected Swiss mice (Mus musculus) at 96 mg/kg peroral dose at day 28. Format: functional. Further details: scale not given: the % may be the effect or the level left. Conditions: route oral.
The test system of experiment [6] is Plasmodium yoelii nigeriensis. In words: Antimalarial activity as reduced parasitaemia against multidrug-resistant Plasmodium yoelii nigeriensis infected Swiss mice (Mus musculus) at 48 mg/kg peroral dose at day 4. Type of experiment: functional. Further details: scale not given: the % may be the effect or the level left. To be noted: route oral.
The test system of experiment [7] is Plasmodium yoelii nigeriensis. In words: Antimalarial activity as survivor numbers against multidrug-resistant Plasmodium yoelii nigeriensis infected Swiss mice (Mus musculus) at 48 mg/kg peroral dose at day 28. Format: functional, organism-based. Further details: dose 48 mg/kg.

`C=C(c1ccc(-c2ccccc2)cc1)C1CCOC2(CCC(Nc3ccc(C(F)(F)F)cc3)CC2)OO1` (mixture of isomers): the result in experiment [1] and in experiment [4] was inactive. Besides, the Activity in experiment [2] was determined as 75.84%; in experiment [3], 68.3%.

In the case of `C=C(c1ccccc1)C1CCOC2(CCC(=CC(=O)OCC)CC2)OO1` (mixture of isomers), the outcome in experiment [1] and in experiment [4] was inactive. Besides, the Activity in experiment [2] was 43.58%; in experiment [3], 88.76%.

Regarding `C=C(c1ccc(-c2ccccc2)cc1)C1CCOC2(CCC(=CC(=O)OCC)CC2)OO1` (mixture of isomers), the outcome in experiment [1] and in experiment [4] was inactive. For the same compound, the Activity in experiment [2] is 35.32%; in experiment [3] it was 95.18%.

Consider `C=C(c1ccccc1)C1CCOC2(CCC(Nc3ccccc3)CC2)OO1` (mixture of isomers), for which the outcome in experiment [1] and in experiment [4] was inactive. For the same compound, the figures for the Activity in experiment [2] and in experiment [3] were 75.47% and 78.58%, respectively.

Turning to `C=C(c1ccccc1)C1CCOC2(CCC(Nc3ccc(F)cc3)CC2)OO1` (mixture of isomers), the result in experiment [1] and in experiment [4] was inactive. Also, the Activity in experiment [2] stood at 50%; in experiment [3] it was 63.18%.

For `C=C(c1ccc(Cl)cc1)C1CCOC2(CCC(Nc3ccccc3)CC2)OO1` (mixture of isomers), the result in experiment [1] and in experiment [4] was inactive. Further, the Activity in experiment [2] was 32.07%; in experiment [3], 98.49%.

Regarding `C=C(c1ccc(Cl)cc1)C1CCOC2(CCC(Nc3ccc(F)cc3)CC2)OO1` (mixture of isomers), the outcome in experiment [1] and in experiment [4] was inactive. The Activity in experiment [2] was 58.37%; in experiment [3], 41.51%.

With `C=C(c1ccc(-c2ccccc2)cc1)C1CCOC2(CCC(Nc3ccccc3)CC2)OO1` (mixture of isomers), the Activity in experiment [2] is given as 99.01%; in experiment [3] it was 100%; in experiment [5], 75%. The result in experiment [4] was inactive.

With `C=C(c1ccc(-c2ccccc2)cc1)C1CCOC2(CCC(Nc3ccc(F)cc3)CC2)OO1` (mixture of isomers), the result in experiment [1] and in experiment [4] was inactive. The Activity in experiment [2] amounted to 57.69%; in experiment [3], 98.08%.

With `C=C(c1ccc(Cl)cc1)C1CCOC2(CCC(=CC(=O)OCC)CC2)OO1` (mixture of isomers), the outcome in experiment [1] and in experiment [4] was inactive. Also, the Activity in experiment [2] was found to be 41.11%; in experiment [3] it was 85.87%.

Take `C=C(c1ccc(Cl)cc1)C1CCOC2(CCC(Nc3ccc(C(F)(F)F)cc3)CC2)OO1` (mixture of isomers): the result in experiment [1] and in experiment [4] was inactive. The Activity in experiment [2] stood at 73.36%; in experiment [3], 87.17%.

With `C=C(c1ccccc1)C1CCOC2(CCC(Nc3ccc(C(F)(F)F)cc3)CC2)OO1` (mixture of isomers), the results for the Activity in experiment [2], in experiment [3] and in experiment [5] were 24.32%, 100% and 40%, respectively. The result in experiment [4] was inactive.

`CCO[C@H]1O[C@@H]2O[C@@]3(C)CC[C@H]4[C@H](C)CC[C@@H]([C@H]1C)[C@@]24OO3` [ARTEMOTIL] yielded an Activity in experiment [6] of 100%. In addition, in experiment [7], the outcome was Active.
